Read-outs that look alike come from different tables or passages of the source.
Legend:
HSPA2 = biological target: T1, HSPA2 (Homo sapiens, UniProt P54652); assay: 2D-TPP in U87 cells; assay type: binding; conditions: 1.5 h, destabilized, read-out: pEC50 of protein destabilization, HSPA2 (converted)
T1 construct: endogenous in cells; host or cells: U87 cells

HSPA1A = HSPA1A (Homo sapiens, UniProt P0DMV8); assay: 2D-TPP in U87 cells
HSPA9 = biological target: T2, HSPA9 (Homo sapiens, UniProt P38646); assay: 2D-TPP in U87 cells; assay type: binding
T2 construct: endogenous in cells; host or cells: U87 cells

Hazara virus (HAZV) [1] = assay: microbe, parasite or virus in culture; assay type: cell-based; conditions: SW13, 24 h
HSPA8 = biological target: T3, HSPA8 (Homo sapiens, UniProt P11142); assay: 2D-TPP in U87 cells; assay type: binding; conditions: 1.5 h, destabilized, read-out: pEC50 of protein destabilization, HSPA8 (converted)
T3 construct: endogenous in cells; host or cells: U87 cells

OGG1 [2] = biological target: T4, OGG1 (Homo sapiens, UniProt O15527); assay: Cellular thermal shift assay (CETSA), Western blot; assay type: binding; parameters: endogenous in cells; host or cells: SW13 or U87 cells
OGG1 [3] = biological target: T4, OGG1; assay: In vitro OGG1 activity assay; assay type: biochemical
HSP90B1 = biological target: T5, HSP90B1 (Homo sapiens, UniProt P14625); assay: 2D-TPP in U87 cells; assay type: binding; conditions: 1.5 h, stabilized, read-out: pEC50 of protein stabilization, HSP90B1 (converted)
T5 construct: endogenous in cells; host or cells: U87 cells

EDEM3 [4] = biological target: T6, EDEM3 (Homo sapiens, UniProt Q9BZQ6); assay: TPP-TR in HAZV-infected SW13 cells; conditions: 20 μM, 4 h
Hazara virus (HAZV) [5] = assay: microbe, parasite or virus in culture; assay type: cell-based; conditions: Hazara virus
HARS2 = HARS2 (Homo sapiens, UniProt P49590); assay: TPP-TR in HAZV-infected SW13 cells; conditions: read-out: ΔTm of HARS2
HSPA12A = biological target: T7, HSPA12A (Homo sapiens, UniProt O43301); assay: 2D-TPP in U87 cells; assay type: binding; conditions: 1.5 h, destabilized, read-out: pEC50 of protein destabilization, HSPA12A (converted)
T7 construct: endogenous in cells; host or cells: U87 cells

EDEM3 [6] = biological target: T6, EDEM3; assay: 2D-TPP in U87 cells; assay type: binding; parameters: endogenous in cells; host or cells: U87 cells; conditions: 1.5 h, stabilized, read-out: pEC50 of protein stabilization, EDEM3 (converted)
Hsp70 = biological target: T8, Hsp70 (Homo sapiens, UniProt P0DMV8); assay: Cellular thermal shift assay; assay type: binding; conditions: U87 and SW13 cells, 56 and 59 °C, CETSA-TR at 20 μM and dose dependently
T8 construct: endogenous in cells; host or cells: U87 or SW13 cells

SW13 cells = assay: Viability of SW13 cells by nuclei count in the HAZV antiviral assay; assay type: cell-based; conditions: Homo sapiens; HAZV, SW13, MOI 1, 24 h; read-out: Viability (nuclei count) EC50
DNAJC3 [7] = biological target: T9, DNAJC3 (Homo sapiens, UniProt Q13217); assay: 2D-TPP in U87 cells
DNAJB11 = biological target: T10, DNAJB11 (Homo sapiens, UniProt Q9UBS4); assay: 2D-TPP in U87 cells
T10 sequence (Q9UBS4 23-358): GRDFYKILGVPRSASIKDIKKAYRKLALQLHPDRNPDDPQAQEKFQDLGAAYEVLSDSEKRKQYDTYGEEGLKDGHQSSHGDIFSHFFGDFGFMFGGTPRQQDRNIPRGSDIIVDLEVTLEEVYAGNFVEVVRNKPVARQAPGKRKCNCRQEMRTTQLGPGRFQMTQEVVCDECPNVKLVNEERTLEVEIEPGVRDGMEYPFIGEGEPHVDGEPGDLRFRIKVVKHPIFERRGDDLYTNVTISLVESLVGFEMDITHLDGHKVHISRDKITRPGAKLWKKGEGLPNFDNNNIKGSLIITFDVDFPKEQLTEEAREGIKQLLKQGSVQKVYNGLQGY

CALR = biological target: T11, CALR (Homo sapiens, UniProt P27797); assay: 2D-TPP in U87 cells; assay type: binding; conditions: 1.5 h, stabilized, read-out: pEC50 of protein stabilization, CALR (converted)
T11 construct: endogenous in cells; host or cells: U87 cells

DNAJC3 [8] = biological target: T9, DNAJC3; assay: TPP-TR in HAZV-infected SW13 cells; conditions: 20 μM, 4 h
[9] = biological target: T12, Hsp70 - HAZV NP interaction (Homo sapiens, UniProt P0DMV8); assay: Hsp70 immunoprecipitation in HAZV-infected Hek293T cells; assay type: cell-based; conditions: HAZV MOI 1, 20 μM, 1 h, statistically not significant
T12 construct: endogenous in cells; host or cells: HEK293T cells infected with HAZV (MOI 1)

CoV 229E = CoV 229E titer in Huh7 cells, end-point dilution assay; assay type: cell-based, Coronavirus 229E; conditions: MOI 5, 10 µM, 24 h

T4 sequence (O15527 whole entry): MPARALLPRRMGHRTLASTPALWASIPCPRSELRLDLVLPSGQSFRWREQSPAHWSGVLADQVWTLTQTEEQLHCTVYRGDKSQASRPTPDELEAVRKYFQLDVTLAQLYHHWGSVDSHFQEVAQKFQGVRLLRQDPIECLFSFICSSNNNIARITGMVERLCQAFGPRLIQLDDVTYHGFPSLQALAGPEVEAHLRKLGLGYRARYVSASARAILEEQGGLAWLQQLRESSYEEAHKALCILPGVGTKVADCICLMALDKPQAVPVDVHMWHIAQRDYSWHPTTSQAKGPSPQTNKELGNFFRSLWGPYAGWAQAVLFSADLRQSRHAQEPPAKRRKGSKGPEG
T9 sequence (Q13217 32-504): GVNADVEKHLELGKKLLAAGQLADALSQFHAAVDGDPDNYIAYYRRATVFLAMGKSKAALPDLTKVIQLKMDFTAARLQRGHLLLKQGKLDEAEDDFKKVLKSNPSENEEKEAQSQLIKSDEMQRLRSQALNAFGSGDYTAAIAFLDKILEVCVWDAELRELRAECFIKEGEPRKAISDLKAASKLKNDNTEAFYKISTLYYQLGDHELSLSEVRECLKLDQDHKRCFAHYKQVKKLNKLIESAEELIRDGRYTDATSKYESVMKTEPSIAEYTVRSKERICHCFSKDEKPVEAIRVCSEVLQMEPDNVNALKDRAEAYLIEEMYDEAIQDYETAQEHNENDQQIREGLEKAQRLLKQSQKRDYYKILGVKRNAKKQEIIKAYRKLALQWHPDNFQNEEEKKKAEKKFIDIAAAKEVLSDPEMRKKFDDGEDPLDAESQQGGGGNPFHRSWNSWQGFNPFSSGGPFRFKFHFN
T6 sequence (Q9BZQ6 42-932): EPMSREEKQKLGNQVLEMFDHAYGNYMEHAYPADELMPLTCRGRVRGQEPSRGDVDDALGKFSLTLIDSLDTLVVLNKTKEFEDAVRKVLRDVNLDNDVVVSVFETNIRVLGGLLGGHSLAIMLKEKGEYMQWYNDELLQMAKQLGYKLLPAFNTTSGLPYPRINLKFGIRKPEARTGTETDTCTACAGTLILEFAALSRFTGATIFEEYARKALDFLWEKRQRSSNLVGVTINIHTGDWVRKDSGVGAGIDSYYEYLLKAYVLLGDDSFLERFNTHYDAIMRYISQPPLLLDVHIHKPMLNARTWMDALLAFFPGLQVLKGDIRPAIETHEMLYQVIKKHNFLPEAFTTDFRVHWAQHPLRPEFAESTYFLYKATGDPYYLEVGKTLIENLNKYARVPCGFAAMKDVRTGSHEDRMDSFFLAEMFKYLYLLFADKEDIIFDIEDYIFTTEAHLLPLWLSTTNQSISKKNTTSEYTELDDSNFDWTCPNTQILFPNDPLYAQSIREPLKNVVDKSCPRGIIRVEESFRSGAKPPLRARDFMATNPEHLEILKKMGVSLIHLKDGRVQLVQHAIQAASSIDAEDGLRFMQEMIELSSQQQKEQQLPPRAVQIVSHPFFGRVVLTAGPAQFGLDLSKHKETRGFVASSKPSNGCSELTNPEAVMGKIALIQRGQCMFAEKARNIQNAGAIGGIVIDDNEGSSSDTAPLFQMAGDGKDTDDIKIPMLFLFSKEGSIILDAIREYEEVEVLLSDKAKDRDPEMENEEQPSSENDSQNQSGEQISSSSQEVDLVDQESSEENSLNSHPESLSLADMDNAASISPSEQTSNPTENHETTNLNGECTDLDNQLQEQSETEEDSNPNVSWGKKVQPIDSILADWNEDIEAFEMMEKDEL
T7 sequence (O43301 whole entry): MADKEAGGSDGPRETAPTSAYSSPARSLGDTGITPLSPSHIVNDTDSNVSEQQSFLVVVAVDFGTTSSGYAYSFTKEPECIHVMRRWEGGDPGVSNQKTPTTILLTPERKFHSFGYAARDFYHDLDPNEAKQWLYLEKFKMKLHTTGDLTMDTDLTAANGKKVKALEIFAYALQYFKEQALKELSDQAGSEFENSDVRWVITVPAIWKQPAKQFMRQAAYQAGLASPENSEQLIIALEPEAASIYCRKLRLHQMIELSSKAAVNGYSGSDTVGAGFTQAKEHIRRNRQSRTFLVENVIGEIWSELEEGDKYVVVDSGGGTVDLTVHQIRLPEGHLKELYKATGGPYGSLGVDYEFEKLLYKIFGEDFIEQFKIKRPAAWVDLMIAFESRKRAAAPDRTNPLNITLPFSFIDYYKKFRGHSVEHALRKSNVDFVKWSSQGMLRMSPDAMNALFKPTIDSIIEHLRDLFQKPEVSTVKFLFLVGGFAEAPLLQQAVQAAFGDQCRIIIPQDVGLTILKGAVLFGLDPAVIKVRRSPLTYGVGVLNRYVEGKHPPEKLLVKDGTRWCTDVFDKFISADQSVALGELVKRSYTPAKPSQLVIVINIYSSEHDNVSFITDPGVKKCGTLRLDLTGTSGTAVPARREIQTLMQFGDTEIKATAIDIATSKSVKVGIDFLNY
T1 sequence (P54652 whole entry): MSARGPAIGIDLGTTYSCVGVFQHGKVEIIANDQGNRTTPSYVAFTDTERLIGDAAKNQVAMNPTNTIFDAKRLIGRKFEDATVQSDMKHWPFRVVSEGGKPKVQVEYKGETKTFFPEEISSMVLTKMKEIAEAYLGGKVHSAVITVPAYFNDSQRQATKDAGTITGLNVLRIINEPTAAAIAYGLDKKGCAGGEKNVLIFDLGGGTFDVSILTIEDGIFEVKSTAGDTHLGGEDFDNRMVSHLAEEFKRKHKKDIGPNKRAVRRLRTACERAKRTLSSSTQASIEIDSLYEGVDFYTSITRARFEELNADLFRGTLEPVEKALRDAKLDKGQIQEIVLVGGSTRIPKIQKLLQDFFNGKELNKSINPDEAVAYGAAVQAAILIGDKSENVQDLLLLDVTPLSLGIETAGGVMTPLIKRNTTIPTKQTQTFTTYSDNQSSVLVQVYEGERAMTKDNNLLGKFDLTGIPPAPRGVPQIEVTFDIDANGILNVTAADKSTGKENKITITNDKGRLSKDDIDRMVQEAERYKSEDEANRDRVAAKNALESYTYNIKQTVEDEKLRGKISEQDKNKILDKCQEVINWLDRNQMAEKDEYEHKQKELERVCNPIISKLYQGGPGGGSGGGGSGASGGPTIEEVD
T2 sequence (P38646 47-679): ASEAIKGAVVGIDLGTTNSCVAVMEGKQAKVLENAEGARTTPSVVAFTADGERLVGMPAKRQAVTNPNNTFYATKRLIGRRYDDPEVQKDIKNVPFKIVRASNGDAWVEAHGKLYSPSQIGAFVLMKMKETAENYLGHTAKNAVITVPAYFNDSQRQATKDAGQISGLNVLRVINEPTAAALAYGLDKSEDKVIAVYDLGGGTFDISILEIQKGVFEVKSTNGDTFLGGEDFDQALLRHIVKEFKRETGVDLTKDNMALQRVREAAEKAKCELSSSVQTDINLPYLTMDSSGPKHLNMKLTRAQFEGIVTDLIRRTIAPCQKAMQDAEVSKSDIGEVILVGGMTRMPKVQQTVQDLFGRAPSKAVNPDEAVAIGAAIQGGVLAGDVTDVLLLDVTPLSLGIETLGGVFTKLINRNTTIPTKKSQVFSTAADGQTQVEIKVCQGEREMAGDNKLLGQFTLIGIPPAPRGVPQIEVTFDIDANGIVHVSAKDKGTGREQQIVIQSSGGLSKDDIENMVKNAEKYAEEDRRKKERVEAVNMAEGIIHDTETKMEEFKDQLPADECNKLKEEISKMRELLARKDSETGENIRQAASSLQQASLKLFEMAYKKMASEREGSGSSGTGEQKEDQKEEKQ
T12 sequence (P0DMV8 2-641): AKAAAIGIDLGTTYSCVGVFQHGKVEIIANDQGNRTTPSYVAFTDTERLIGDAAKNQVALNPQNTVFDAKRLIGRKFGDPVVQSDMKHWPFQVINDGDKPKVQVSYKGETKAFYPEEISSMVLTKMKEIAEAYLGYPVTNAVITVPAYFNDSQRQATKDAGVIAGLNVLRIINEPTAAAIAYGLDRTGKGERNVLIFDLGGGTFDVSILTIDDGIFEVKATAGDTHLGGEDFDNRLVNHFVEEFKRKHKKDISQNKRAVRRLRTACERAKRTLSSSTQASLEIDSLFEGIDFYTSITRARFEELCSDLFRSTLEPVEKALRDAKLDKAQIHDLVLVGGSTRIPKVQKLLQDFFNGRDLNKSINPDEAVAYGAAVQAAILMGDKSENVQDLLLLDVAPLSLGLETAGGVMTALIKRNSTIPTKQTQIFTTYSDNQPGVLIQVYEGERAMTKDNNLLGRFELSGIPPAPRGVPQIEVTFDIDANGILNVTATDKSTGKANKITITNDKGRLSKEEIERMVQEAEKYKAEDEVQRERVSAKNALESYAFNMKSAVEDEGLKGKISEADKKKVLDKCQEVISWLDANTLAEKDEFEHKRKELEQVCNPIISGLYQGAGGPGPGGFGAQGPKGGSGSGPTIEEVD
Sequence of HSPA1A (P0DMV8 whole entry): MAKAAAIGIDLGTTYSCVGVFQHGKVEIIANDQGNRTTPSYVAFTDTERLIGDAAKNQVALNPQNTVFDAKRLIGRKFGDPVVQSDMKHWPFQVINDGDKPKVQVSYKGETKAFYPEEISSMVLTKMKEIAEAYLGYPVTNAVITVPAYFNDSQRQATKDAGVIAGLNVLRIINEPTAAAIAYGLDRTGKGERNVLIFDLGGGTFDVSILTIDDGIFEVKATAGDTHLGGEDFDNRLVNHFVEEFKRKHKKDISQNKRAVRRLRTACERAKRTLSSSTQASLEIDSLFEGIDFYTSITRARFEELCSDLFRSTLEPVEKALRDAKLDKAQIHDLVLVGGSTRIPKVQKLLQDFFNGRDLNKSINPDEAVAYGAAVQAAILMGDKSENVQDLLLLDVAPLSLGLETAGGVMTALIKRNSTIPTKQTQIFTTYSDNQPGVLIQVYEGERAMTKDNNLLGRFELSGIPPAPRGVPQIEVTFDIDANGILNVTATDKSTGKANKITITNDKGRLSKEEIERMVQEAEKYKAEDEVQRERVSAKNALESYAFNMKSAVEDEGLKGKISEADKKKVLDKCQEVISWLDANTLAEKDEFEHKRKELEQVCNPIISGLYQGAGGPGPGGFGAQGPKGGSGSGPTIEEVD

CCOC(=O)c1cnn(-c2cccc3c2[nH]c(=O)n3C2CCN(C(=O)Nc3ccc(I)cc3)CC2)c1 [TH6744, ethyl 1-(1-(1-((4-iodophenyl)carbamoyl)piperidin-4-yl)-2-oxo-2,3-dihydro-1H-benzo[d]imidazol-4-yl)-1H-pyrazole-4-carboxylate]
EC50 (HSPA2): 3.16 µM | EC50 (HSPA1A): 3.16 µM | thermal stability change of HSPA9 (HSPA9): destabilized | IC50 (Hazara virus (HAZV) [1]; read-out: Antiviral on primary infection IC50 [µM]): 10.9 µM | EC50 (Hazara virus (HAZV) [1]; read-out: EC50 Infected cells (primary infection)): 10.9 µM | inhibition at 10 µM (Hazara virus (HAZV) [1]; read-out: Viral inhibition on primary infection (%)): 85% | EC50 (HSPA8): 5.01 µM | binding to OGG1 (CETSA, Western blotting) (OGG1 [2]; SW13 cells, 20 μM): binding to its known target OGG1 | binding to OGG1 (isothermal dose-response CETSA at 47 °C, Western blotting) (OGG1 [2]; U87 cells): binding to its known target OGG1 in U87 cells | IC50 (OGG1 [3]): 0.68 µM | OGG1 activity (in words) (OGG1 [3]; Figure 3A): Nanomolar OGG1activity | EC50 (HSP90B1): 6.31 µM | thermal stability change of EDEM3 (EDEM3 [4]): stabilized | IC50 (Hazara virus (HAZV) [5]; SW13, 24 h, read-out: Antiviral on titer (µM) IC50 [µM]): 2.9 µM | EC50 (Hazara virus (HAZV) [5]; SW13, read-out: EC50 Viral titer): 2.9 µM | inhibition at 10 µM (Hazara virus (HAZV) [5]; Vero, 24 h, read-out: Viral inhibition on titer (%)): 90% | ΔTm at 20 µM (HARS2): -9.2 °C | EC50 (HSPA12A): 12.6 µM | EC50 (EDEM3 [6]): 1 µM | Hsp70 thermal stability (CETSA) (Hsp70): Hsp70 destabilization | EC50 (SW13 cells): 37.4 µM | EC50 (DNAJC3 [7]): 3.16 µM | EC50 (DNAJB11): 7.94 µM | EC50 (CALR): 3.98 µM | thermal stability change of DNAJC3 (DNAJC3 [8]): stabilized | increase of HAZV NP interaction with Hsp70 (signal intensity) [9]: 2 fold | reduction of CoV 229E titer (CoV 229E): 95%

— article PMC7762994 (Viruses, 2020)
